Experimental findings from publication PMC6270991, “Design and Synthesis of Thiazolo[5,4-f]quinazolines as DYRK1A Inhibitors, Part I” (Molecules, 2014) are described below.

In series [1] the target is DYRK1A (Rattus norvegicus, UniProt Q63470). Nature of the series: DYRK1A in vitro kinase assay (33P-ATP, Woodtide substrate). It is filed as biochemical. As for the experimental part:
(§1) Buffer A: MgCl2 (10 mM), 1 mM ethylene glycol-bis(2-aminoethylether)-N,N,N',N'-tetraacetic acid (EGTA), 1 mM dithiothreitol (DTT), 25 mM Tris-HCl pH 7.5, 50 μg heparin/mL.
(§2) Controls were performed with appropriate dilutions of dimethylsulfoxide (DMSO). IC50 values were calculated from dose-response curves established by Sigma-Plots. The GSK-3, CK1, DYRK1A and CLK1 peptide substrates were obtained from Proteogenix (Oberhausbergen, France).
(§3) CDK5/p25. (Human, recombinant) was prepared as previously described. […] ATP (3000 Ci/mmol; 10 mCi/mL) in a final volume of 30 μL. After 30 min incubation at 30 °C, 25 μL aliquots of supernatant were spotted onto sheets of Whatman P81 phosphocellulose paper, and 20 s later, the filters were washed eight times (for at least 5 min each time) in a solution of 10 mL phosphoric acid/L of water. The wet filters were counted in the presence of 1 mL ACS (Amersham) scintillation fluid.

The target of series [2] is T1, CDK5/p25 (Homo sapiens, UniProt Q00535).
T1 construct: made in house
T1 sequence (Q00535 whole entry): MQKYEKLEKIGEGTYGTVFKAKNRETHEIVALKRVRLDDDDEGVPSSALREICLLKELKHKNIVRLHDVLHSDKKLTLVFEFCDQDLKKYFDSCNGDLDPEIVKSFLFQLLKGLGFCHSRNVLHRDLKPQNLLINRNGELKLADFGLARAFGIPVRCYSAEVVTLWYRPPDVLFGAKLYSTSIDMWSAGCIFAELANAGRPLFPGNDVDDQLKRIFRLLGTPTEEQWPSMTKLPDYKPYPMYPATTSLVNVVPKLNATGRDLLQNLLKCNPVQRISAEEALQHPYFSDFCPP
T1 sequence (Q15078 99-307 partner limits assumed): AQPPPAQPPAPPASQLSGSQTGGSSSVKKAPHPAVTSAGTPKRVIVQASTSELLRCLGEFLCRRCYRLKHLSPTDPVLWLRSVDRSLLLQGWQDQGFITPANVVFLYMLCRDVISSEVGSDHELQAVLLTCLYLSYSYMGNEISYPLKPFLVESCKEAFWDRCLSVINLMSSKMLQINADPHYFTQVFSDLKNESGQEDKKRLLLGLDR
Put plainly: CDK5/p25 in vitro kinase assay (33P-ATP, histone H1). In kind it is biochemical. To be noted: read-out: CDK5 IC50. How it is done: as §1, §2, §3

Series [3] has as its target CK1δ/ε. Nature of the series: CK1δ/ε in vitro kinase assay (33P-ATP, CK1-specific peptide substrate). In kind it is biochemical, Porcine. The settings on record: 15 μM ATP, 30 min at 30 °C, triplicate; <50% inhibition at 10 µM reported as >10. How it is done:
as §2, §3
CK1δ/ε. (Porcine brain, native) was assayed as described for CDK5/p25, but using the CK1-specific peptide substrate […]pSAYSITA [23].

In series [4] the target is GSK-3α/β. Nature of the series: GSK-3α/β in vitro kinase assay (33P-ATP, GS-1 peptide). In kind it is biochemical, Porcine. The settings on record: 15 μM ATP, 30 min at 30 °C, triplicate; <50% inhibition at 10 µM reported as >10; read-out: GSK3 IC50. How it is done: as §1, §2, §3
GSK-3α/β. (Porcine brain, native) was assayed as described for CDK5/p25, but in buffer A and using a GSK-3 specific substrate (GS-1: […]pSEDEEE) (pS stands for phosphorylated serine).

For `COc1ccc(Nc2ncnc3ccc4nc(C#N)sc4c23)cc1` [Compound 7, 9-(4-Methoxyphenylamino)thiazolo[5,4-f]quinazoline-2-carbonitrile], the melting point is > 260 °C. Besides, the IC50 in series [1] is > 10 µM. Moreover, the IC50 in series [2] was > 10 µM. Further, the half-maximal inhibitory concentration (IC50) in series [3] is > 10 µM. For the same compound, the IC50 in series [4] is > 10 µM.

For the compound `N#Cc1nc2ccc3ncnc(Nc4ccc5c(c4)OCO5)c3c2s1` [Compound 8, 9-(Benzo[d][1,3]dioxol-5-ylamino)thiazolo[5,4-f]quinazoline-2-carbonitrile], the melting point was > 260 °C. Moreover, in series [1], the IC50 was > 10 µM. Also, the half-inhibitory concentration (IC50) in series [2] is > 10 µM. Further, in series [3], the IC50 was > 10 µM. The IC50 in series [4] was > 10 µM.

As to `N#Cc1nc2ccc3ncnc(Nc4ccc(Br)cc4F)c3c2s1` [Compound 9, 9-(4-Bromo-2-fluorophenylamino)thiazolo[5,4-f]quinazoline-2-carbonitrile], the melting point was > 260 °C. For the same compound, in series [1], the IC50 was > 10 µM. The IC50 in series [2] was > 10 µM. The IC50 in series [3] is > 10 µM. Moreover, the half-maximal inhibitory concentration (IC50) in series [4] is > 10 µM.

Regarding `N#Cc1nc2ccc3ncnc(Nc4ccc(F)c(Cl)c4)c3c2s1` [Compound 10, 9-(3-Chloro-4-fluorophenylamino)thiazolo[5,4-f]quinazoline-2-carbonitrile], the melting point is 252 °C. For the same compound, the IC50 in series [1] is > 10 µM. The concentration for half-maximal inhibition (IC50) in series [2] was > 10 µM. Besides, the IC50 in series [3] was > 10 µM. The IC50 in series [4] was > 10 µM.

With `CN(C)C(=N)c1nc2ccc3ncnc(Nc4ccc(F)c(Cl)c4)c3c2s1` [Compound 10g, 9-(3-Chloro-4-fluorophenylamino)-N,N-dimethylthiazolo[5,4-f]quinazoline-2-carboximidamide], the IC50 in series [1] is 6.5 µM; in series [2] it was > 10 µM; in series [3], > 10 µM; in series [4], 7.2 µM.

Broadly, the IC50 is the concentration needed to halve the response being measured. In general, melting point refers to the temperature of the solid-liquid transition.
